# Data taken from publication PMC7288171, “Synergistic Effects of Thiosemicarbazides with Clinical Drugs against S. aureus” (Molecules, 2020).
# Where two headings read alike, the source gives them in different places.
# What was measured:
# [1] = system: B. cereus ATCC 10876; assay: MIC, broth microdilution; assay type: cell-based; conditions: Bacillus cereus, ATCC10876; B. c. ATCC 10876; compounds 6–9 and antibiotics; read-out: MIC
# Description: (§1) The antibacterial activity of the thiosemicarbazides 1–9 and antibiotics (amoxicillin, gentamicin, levofloxacin, linezolid, and vancomycin) was tested on the Gram-positive strains (Microbiologics, St. Cloud, MN, USA) (S. aureus ATCC 25923, S. aureus ATCC 6538, S. epidermidis ATCC 12228, B. subtilis ATCC 6633, B. cereus ATCC 10876, M. luteus ATCC 10240), the Gram-negative strains (Microbiologics, St. Cloud, MN, USA) (E. coli ATCC 25922, K. pneumoniae ATCC 13883, P. mirabilis ATCC 12453, P. aeruginosa ATCC 9027), and clinical isolates of S. aureus (Medical University of Lublin, Lublin, Poland) (MSSA-1, MSSA-2, MSSA-3, MSSA-4, MRSA-1).
# [2] = system: B. subtilis ATCC 6633; assay: MIC, broth microdilution; assay type: cell-based; conditions: Bacillus subtilis, ATCC6633; B. s. ATCC 6633; compounds 6–9 and antibiotics; read-out: MIC
# Description: as §1
# [3] = system: M. luteus ATCC 10240; assay: MIC, broth microdilution; assay type: cell-based; conditions: Micrococcus luteus, ATCC10240; M. l. ATCC 10240; compounds 6–9 and antibiotics; read-out: MIC
# Description: as §1
# [4] = system: S. aureus ATCC 25923; assay: MIC, broth microdilution; assay type: cell-based; conditions: S. a. ATCC 25923, compounds 6–9 and antibiotics
# Description: as §1
# [5] = system: S. aureus ATCC 6538; assay: MIC, broth microdilution; assay type: cell-based; conditions: Staphylococcus aureus, ATCC6538; S. a. ATCC 6538; compounds 6–9 and antibiotics; read-out: MIC
# Description: as §1
# [6] = system: S. epidermidis ATCC 12228; assay: MIC, broth microdilution; assay type: cell-based; conditions: Staphylococcus epidermidis, ATCC12228; S. e. ATCC 12228; compounds 6–9 and antibiotics; read-out: MIC
# Description: as §1
# [7] = system: MRSA-1; assay: MIC, clinical isolate of S. aureus; assay type: cell-based; conditions: Staphylococcus aureus; clinical isolate MRSA-1; read-out: MIC
# Description: as §1
# [8] = system: MSSA-1; assay: MIC, clinical isolate of S. aureus; assay type: cell-based; conditions: Staphylococcus aureus; clinical isolate MSSA-1; read-out: MIC
# Description: as §1
# [9] = system: MSSA-2; assay: MIC, clinical isolate of S. aureus; assay type: cell-based; conditions: Staphylococcus aureus; clinical isolate MSSA-2; read-out: MIC
# Description: as §1
# [10] = system: MSSA-3; assay: MIC, clinical isolate of S. aureus; assay type: cell-based; conditions: Staphylococcus aureus; clinical isolate MSSA-3; read-out: MIC
# Description: as §1
# [11] = system: MSSA-4; assay: MIC, clinical isolate of S. aureus; assay type: cell-based; conditions: Staphylococcus aureus; clinical isolate MSSA-4; read-out: MIC
# Description: as §1
# [12] = MTT cytotoxicity assay; assay type: cell-based, human; conditions: human, Hs27 foreskin fibroblast cells (ATCC CRL-1634), 25 µg/mL, 24 h, vehicle control = 100%
# Description: (§2) A critical factor in research and development of new antibacterial agents is their abilities to selectively target bacterial cells without toxicity to mammalian cells. Thus, in order to test if antibacterial activity of title thiosemicarbazides is not due to their general toxicity, their effect on mammalian cell viability was assessed using human foreskin fibroblast Hs27 cells (CRL-1634) via MTT assay.
# (§3) Cytotoxic properties of the compounds were evaluated using human foreskin fibroblast cells Hs27 (ATCC CRL-1634) (ATCC, Manassas, VA, USA) that were cultured in DMEM-high glucose (Sigma Aldrich, St. Louis, MO, USA). Medium was supplemented with 10% fetal bovine serum (FBS, Sigma Aldrich), 100 U/mL of penicillin, and […] of streptomycin (PenStrep, Sigma Aldrich, St. Louis, MO, USA). Cells were incubated at 37 °C in a humidified atmosphere of 5% CO2. Stock solutions of the tested compounds were prepared dissolving in a sterile dimethyl sulfoxide (DMSO) to the concentration of 50 mg/mL. The cells were seeded into 96-well sterile plates (Nunc) at a cell density of 1 × 10^5 cells/mL. After 24 h of incubation, the medium was removed from each well, and then cells were incubated for the next 24 h with tested compounds (in a fixed dose of 25 µg/mL) in DMEM-high glucose containing 2% FBS. Control cells were cultured only with medium containing 2% addition of FBS. Cytotoxicity of the compounds was evaluated using MTT assay, which is based on the conversion of 3-(4,5-dimethylthiazol-2-yl)-2,5- diphenyltetrazolium bromide (MTT) into dark-blue formazan crystals. Briefly, after 24-h incubation of cells with varying concentrations of the tested compounds, culture medium was removed from the plates. Cells were washed with PBS, and then 100 µL of medium containing 10% MTT solution (5 mg/mL) was added to each well. Cells were incubated for the next 3 h at 37 °C in an atmosphere of 5% CO2. Next, 100 µL (per well) of 10% sodium dodecyl sulfate (SDS) buffer solution was added to dissolve formazan crystals and after an overnight incubation the absorbance was measured at 570 nm using a microplate reader (Epoch, BioTek Instruments, Inc., Winooski, VT, USA).
# [13] = system: human foreskin fibroblast Hs27 cells (CRL-1634); assay: MTT cytotoxicity assay; assay type: cell-based; conditions: Homo sapiens, 24 h of treatment
# Description: as §2, §3
# [14] = system: S. aureus ATCC 25923; assay: Checkerboard broth dilution synergy assay; assay type: cell-based
# Description: The microdilution checkerboard method was used to evaluate the synergistic effects between the thiosemicarbazides 1–9 and antibiotics, which were determined as the fractional inhibitory concentration indices (FICIs). For these experiments, amoxicillin, gentamicin, levofloxacin, linezolid, and vancomycin were selected to represent the five antimicrobial classes most commonly used in clinical practice. In this way, a total of 45 combinations of thiosemicarbazide-amoxicillin, thiosemicarbazide-gentamicin, thiosemicarbazide-levofloxacin, thiosemicarbazide-linezolid, and thiosemicarbazide-vancomycin against S. aureus ATCC 25923 were tested to identify in vitro synergy effects.
# Interaction of the thiosemicarbazides 1–9 in combination with amoxicillin, gentamicin, levofloxacin, linezolid or vancomycin against S. aureus ATCC 25923 were analyzed using the checkerboard broth dilution method to determine the fractional inhibitory concentration indices (FICIs), calculated as: FIC = MIC of drug A in combination/MIC of drug A alone + MIC of drug B in combination/MIC of drug B alone. The calculated FICIs were interpreted as synergistic (FIC ≤ 0.5), additive (0.5 < FIC < 1), indifferent (1 ≤ FIC < 4.0), or antagonistic (FIC ≥ 4.0). The checkerboard assay included ciprofloxacin-carvedilol combination as positive control, whereas cefuroxime in combination with 4-(4-bromophenyl)-1-(3-fluorobezoyl)thiosemicarbazide served as negative control. The Z-factor value for the bioassay was 0.683.
# [15] = target: T1, S. aureus DNA gyrase (Staphylococcus aureus, UniProt P0A0K8+P20831); assay: Gyrase supercoiling assay; assay type: biochemical; conditions: read-out: S. aureus Gyrase DNA Inhibition (%) ± SD
# T1 construct: purchased Inspiralis, Norwich, UK
# T1 sequence (P20831 whole entry): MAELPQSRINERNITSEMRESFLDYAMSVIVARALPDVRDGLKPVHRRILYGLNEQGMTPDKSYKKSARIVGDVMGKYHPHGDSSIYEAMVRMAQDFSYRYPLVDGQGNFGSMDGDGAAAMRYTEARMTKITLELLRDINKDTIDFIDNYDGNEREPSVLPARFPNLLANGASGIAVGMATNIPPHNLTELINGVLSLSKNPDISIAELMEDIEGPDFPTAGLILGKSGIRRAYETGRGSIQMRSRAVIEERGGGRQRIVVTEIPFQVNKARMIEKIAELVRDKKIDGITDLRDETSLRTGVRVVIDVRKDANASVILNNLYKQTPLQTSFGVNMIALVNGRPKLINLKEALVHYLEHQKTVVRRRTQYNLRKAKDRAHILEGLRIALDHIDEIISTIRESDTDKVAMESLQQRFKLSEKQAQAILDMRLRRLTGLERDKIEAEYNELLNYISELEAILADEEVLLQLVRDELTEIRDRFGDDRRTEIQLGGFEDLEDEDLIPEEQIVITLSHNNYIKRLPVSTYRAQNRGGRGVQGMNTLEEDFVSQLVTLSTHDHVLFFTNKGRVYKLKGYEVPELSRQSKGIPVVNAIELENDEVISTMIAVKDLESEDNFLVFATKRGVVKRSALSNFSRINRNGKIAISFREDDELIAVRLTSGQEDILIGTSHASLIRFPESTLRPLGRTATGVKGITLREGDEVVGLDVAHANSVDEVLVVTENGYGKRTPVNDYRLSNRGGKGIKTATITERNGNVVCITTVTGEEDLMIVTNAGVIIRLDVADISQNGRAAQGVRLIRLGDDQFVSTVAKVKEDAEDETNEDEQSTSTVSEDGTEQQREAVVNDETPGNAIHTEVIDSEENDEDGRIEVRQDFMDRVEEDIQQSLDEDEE
# T1 sequence (P0A0K8 whole entry): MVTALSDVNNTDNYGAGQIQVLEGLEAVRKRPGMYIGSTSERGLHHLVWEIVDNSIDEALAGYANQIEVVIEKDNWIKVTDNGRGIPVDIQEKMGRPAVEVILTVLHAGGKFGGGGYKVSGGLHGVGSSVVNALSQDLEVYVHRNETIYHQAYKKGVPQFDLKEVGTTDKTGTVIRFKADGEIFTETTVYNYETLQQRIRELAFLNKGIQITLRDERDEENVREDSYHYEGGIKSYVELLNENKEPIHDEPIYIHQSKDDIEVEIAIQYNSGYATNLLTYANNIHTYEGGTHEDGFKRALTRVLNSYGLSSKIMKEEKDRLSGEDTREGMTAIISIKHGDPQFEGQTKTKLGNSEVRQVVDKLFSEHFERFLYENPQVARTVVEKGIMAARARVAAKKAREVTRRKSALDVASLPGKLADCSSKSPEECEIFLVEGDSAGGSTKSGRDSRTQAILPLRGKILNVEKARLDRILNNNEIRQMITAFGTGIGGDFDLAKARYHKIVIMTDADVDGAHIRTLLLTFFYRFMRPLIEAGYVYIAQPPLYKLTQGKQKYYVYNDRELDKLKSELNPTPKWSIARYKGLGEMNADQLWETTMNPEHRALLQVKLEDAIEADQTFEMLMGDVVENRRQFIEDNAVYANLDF
# Description: Supercoiling assay: The assays were performed using S. aureus Gyrase Supercoiling Assay Kits (Inspiralis, Norwich, UK). Briefly, […] pBR322 plasmid DNA (0.5 µg) was incubated with 1 unit of gyrase, in the dedicated supercoiling assay buffer supplied by the manufacturer, in the presence of varying concentrations of the test compounds. Reactions were carried out at 37 °C for 1 h and then terminated by the addition of equal volume of 2 × STOP Buffer (40% sucrose, 100 mM Tris-Cl pH 7.5, 1 mM EDTA, and 0.5 mg/mL bromophenol blue) and chloroform/iso-amyl alcohol. Samples were vortexed, centrifuged, and run through a 15 cm 1% agarose gel in TAE buffer (40 mM Tris-acetate, 2 mM EDTA) for 3 h at 50 V. Gels were stained with ethidium bromide and visualized under UV light.
# [16] = target: T2, S. aureus topoisomerase IV (Staphylococcus aureus, UniProt P0C1S7+P0C1U9); assay: Topoisomerase IV decatenation assay; assay type: biochemical; conditions: in words; 50 and 100 µM tested (Figures S1–S3)
# T2 construct: purchased Inspiralis, Norwich, UK
# T2 sequence (P0C1U9 whole entry): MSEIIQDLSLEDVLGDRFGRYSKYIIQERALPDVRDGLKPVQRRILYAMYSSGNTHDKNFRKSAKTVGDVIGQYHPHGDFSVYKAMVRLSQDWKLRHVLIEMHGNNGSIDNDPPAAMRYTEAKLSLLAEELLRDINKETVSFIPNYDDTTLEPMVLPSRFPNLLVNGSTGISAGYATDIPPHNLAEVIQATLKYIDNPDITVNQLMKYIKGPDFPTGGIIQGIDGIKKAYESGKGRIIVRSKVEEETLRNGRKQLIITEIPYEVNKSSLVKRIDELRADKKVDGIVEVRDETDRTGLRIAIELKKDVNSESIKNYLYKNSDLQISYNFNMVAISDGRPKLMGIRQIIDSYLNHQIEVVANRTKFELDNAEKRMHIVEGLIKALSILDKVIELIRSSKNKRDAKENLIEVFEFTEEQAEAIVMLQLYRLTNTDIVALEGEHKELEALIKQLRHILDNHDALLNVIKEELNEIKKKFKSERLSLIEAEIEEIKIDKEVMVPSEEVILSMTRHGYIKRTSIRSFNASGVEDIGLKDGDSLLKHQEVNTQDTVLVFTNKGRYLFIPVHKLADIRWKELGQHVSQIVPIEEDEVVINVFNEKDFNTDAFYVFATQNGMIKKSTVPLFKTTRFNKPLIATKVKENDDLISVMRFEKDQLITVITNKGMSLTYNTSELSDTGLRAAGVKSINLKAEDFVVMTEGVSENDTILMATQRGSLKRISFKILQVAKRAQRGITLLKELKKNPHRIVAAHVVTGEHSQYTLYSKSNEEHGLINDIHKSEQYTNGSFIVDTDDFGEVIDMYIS
# T2 sequence (P0C1S7 whole entry): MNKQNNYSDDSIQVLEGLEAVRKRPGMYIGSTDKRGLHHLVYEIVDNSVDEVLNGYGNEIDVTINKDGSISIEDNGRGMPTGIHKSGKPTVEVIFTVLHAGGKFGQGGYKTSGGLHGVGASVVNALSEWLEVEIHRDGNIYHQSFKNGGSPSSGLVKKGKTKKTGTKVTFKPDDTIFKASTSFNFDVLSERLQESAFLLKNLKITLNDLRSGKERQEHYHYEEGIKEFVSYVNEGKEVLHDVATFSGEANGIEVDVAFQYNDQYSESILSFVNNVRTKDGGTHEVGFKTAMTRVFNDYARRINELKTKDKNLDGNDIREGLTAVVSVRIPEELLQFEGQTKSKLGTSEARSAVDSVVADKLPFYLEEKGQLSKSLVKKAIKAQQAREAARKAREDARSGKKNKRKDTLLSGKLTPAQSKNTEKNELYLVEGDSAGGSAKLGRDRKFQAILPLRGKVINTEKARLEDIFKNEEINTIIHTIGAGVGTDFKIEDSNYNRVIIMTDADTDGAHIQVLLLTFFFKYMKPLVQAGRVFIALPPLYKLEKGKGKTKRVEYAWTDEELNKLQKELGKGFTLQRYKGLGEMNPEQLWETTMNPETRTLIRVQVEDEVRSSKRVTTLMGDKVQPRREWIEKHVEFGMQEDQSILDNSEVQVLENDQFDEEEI
# Description: Inhibition of decatenation activity of S. aureus topoisomerase IV: The assay was performed using S. aureus topoisomerase IV decatenation kits (Inspiralis, Norwich, UK). Interlinked kDNA substrate (0.5 µg) was incubated with 1 unit of topoisomerase IV (Inspiralis, Norwich, UK), in the dedicated decatenation assay buffer supplied by the manufacturer, in the presence of varying concentrations of the test compounds. Reactions were carried out at 37 °C for 1 h and then terminated by the addition of equal volume of 2 × STOP Buffer and chloroform/iso-amyl alcohol. Samples were vortexed, centrifuged, and run through a 15 cm 1% agarose gel in TAE buffer for 1.5 h at 80 V. Gels were stained with ethidium bromide and visualized under UV light.
# [17] = Staphylococcus aureus, ATCC25923, read-out: MIC
SMILES,MIC [1],MIC [2],MIC [3],MIC [4],"MIC [4, 17]",MIC [5],MIC [6],MIC [7],MIC [8],MIC [9],MIC [10],MIC [11],"viability at 24 h, 25 µg/mL [12]",IC50 [13],interaction in combination ([14]; combination with amoxicillin),interaction in combination ([14]; combination with gentamicin),interaction in combination ([14]; combination with levofloxacin),interaction in combination ([14]; combination with linezolid),interaction in combination ([14]; combination with vancomycin),melting point,further results
"O=C(NNC(=S)Nc1cccc(Cl)c1)c1ccccc1F [compound 7, 4-(3-chlorophenyl)-1-(2-fluorobenzoyl)thiosemicarbazide]",31.2 µg/mL,15.6 µg/mL,7.82 µg/mL,62.50 µg/mL,62.5 µg/mL,31.2 µg/mL,31.2 µg/mL,500 µg/mL,125 µg/mL,> 500 µg/mL,125 µg/mL,125 µg/mL,93.2%,> 25 µg/mL,additively,no interactions,synergistically,no interactions,antagonistic,158 to 160 °C,inhibition at 50 µM ([15]; 50 µM): 23.8 ± 5.02%; inhibition at 100 µM ([15]; 100 µM): 33.1 ± 1.04%
"O=C(NNC(=S)Nc1cccc(C(F)(F)F)c1)c1ccccc1F [compound 8, 1-(2-fluorobenzoyl)-4-(3-trifluoromethylphenyl)thiosemicarbazide]",7.82 µg/mL,7.82 µg/mL,7.82 µg/mL,–,15.6 µg/mL,15.6 µg/mL,7.82 µg/mL,> 500 µg/mL,62.5 µg/mL,> 500 µg/mL,> 500 µg/mL,> 500 µg/mL,65.2%,> 25 µg/mL,indifferently,indifferently,additively,additively,indifferently,176 to 178 °C,inhibitory action against topoisomerase IV [16]: no inhibitory effects
"O=C(NNC(=S)Nc1cccc(Br)c1)c1ccccc1F [compound 9, 4-(3-bromophenyl)-1-(2-fluorobenzoyl)thiosemicarbazide]",15.6 µg/mL,15.6 µg/mL,7.82 µg/mL,62.50 µg/mL,62.5 µg/mL,62.5 µg/mL,31.2 µg/mL,125 µg/mL,62.5 µg/mL,> 500 µg/mL,> 500 µg/mL,125 µg/mL,63.1%,> 25 µg/mL,indifferently,indifferently,additively,additively,indifferently,166 to 168 °C,inhibitory action against topoisomerase IV [16]: no inhibitory effects
